What all share (test): Greenhouse trial, herbicidal activity against weed plants pre-emergence
What all share (conditions): 3 weeks

For one assay, the system named is AMAPA USA12001. The assay is classed as in vivo, Amaranthus palmeri. An excerpt:
(§1) Test Conditions in the Greenhouse Trial, Herbicidal Activity Against Weed Plants Pre-Emergence
(§2) Seeds of monocotyledonous and dicotyledonous weed plants and crop plants are shown in sandy loam soil in wood fibre pots, and covered with soil. The compounds of the invention, formulated in the form of wettable powders (WP) or emulsifiable concentrates (EC), are then applied to the surface of the covering earth, in the form of an aqueous suspension or emulsion, with a water application rate when converted of 600 to 800 I/ha with addition of 0.2% of wetting agent. Following the treatment, the pots are placed in a greenhouse and maintained under good growth conditions for the test plants. Visual scoring of the damage to the trial plants takes place after a trial time of 3 weeks in comparison to untreated controls (herbicidal activity in percent (%): 100% activity=plants have died; 0% activity=as control plants). The results are set out in the tables which follow.
AMAPA (USA12001) Amaranthus palmeri (against HPPD-resistant species)
(§3) E^C=Expected value according to Colby (E^C=A+B−A×B/100)
(§4) Δ=Difference (%) between measured value and expected value (%) (measured value minus expected value)
(§5) • measured value E is greater than E^C:→synergism (+Δ) • measured value E is equal to E^C:→additive effect • measured value E is smaller than E^C:→antagonism (−Δ)

In the next assay the test system is POAAN. In kind it is in vivo, Poa annua.
From the text: as §1, §2, §3, §4, §5

In another assay the test system is POLCO. The assay is classed as in vivo, Polygonum convolvulus.
From the text: as §1, §2
POLCO Polygonum convolvulus
as §3, §4, §5

The subject of another assay is PHBPU. The assay is classed as in vivo, Pharbitis purpureum.
From the text: as §1, §2
PHBPU Pharbitis purpureum
as §3, §4, §5

Another assay concerns EPHHL. In kind it is in vivo, Euphorbia heterophylla.
From the text: as §1, §2
EPHHL Euphorbia heterophylla
as §3, §4, §5

The next assay relates to ECHCG. The assay is classed as in vivo, Echinochloa crus galli.
From the text: as §1, §2
ECHCG Echinochloa crus galli
as §3, §4, §5

The next assay deals with AMATA. The assay is classed as in vivo, Amaranthus tamariscinus.
From the text: as §1, §2
AMATA Amaranthus tamariscinus
as §3, §4, §5

The structures appear in SMILES notation.

In the case of `CS(=O)(=O)c1cc(C(F)(F)F)ccc1C(=O)c1cnoc1C1CC1` [IFT, isoxaflutole], the “Activity [%] against AMAPA USA12001” value stood at 0% with AMAPA USA12001 (rate 6 g/ha), 15% in the assay with AMAPA USA12001 (rate 13 g/ha) and 55% in the assay on AMAPA USA12001 (rate 25 g/ha). The “Activity [%] against POAAN” value in the assay on POAAN (rate 6 g/ha) and in the assay with POAAN (rate 25 g/ha) was 0% in each case. Besides, the “Activity [%] against POLCO” value in the assay with POLCO (rate 3 g/ha) is 0%; in the assay on POLCO (rate 13 g/ha), 35%. For the same compound, the “Activity [%] against PHBPU” value in the assay with PHBPU (rate 6 g/ha) is on record as 20%. The “Activity [%] against EPHHL” value with EPHHL (rate 6 g/ha) stood at 70%. Also, the “Activity [%] against ECHCG” value with ECHCG (rate 3 g/ha) was found to be 73%. The “Activity [%] against AMATA” value with AMATA (rate 3 g/ha) amounted to 10%.

`O=C(Nc1ccc(F)cc1F)c1cccnc1Oc1cccc(C(F)(F)F)c1` [DFF, diflufenican]: the “Activity [%] against AMAPA USA12001” value in the assay on AMAPA USA12001 (rate 9.375 g/ha) is 20%; with AMAPA USA12001 (rate 18.75 g/ha) it was 35%; with AMAPA USA12001 (rate 37.5 g/ha), 45%; in the assay with AMAPA USA12001 (rate 75 g/ha), 70%. In addition, the “Activity [%] against POAAN” value is reported as 3% in the assay with POAAN (rate 9.375 g/ha) and 88% in the assay on POAAN (rate 18.75 g/ha). For the same compound, the “Activity [%] against POLCO” value with POLCO (rate 37.5 g/ha) is 55%. For the same compound, the “Activity [%] against PHBPU” value in the assay with PHBPU (rate 9.375 g/ha) is recorded as 0%; in the assay with PHBPU (rate 18.75 g/ha), 3%; in the assay on PHBPU (rate 37.5 g/ha), 25%; in the assay on PHBPU (rate 75 g/ha) it was 70%. In addition, the “Activity [%] against EPHHL” value in the assay on EPHHL (rate 37.5 g/ha) is recorded as 30%. The “Activity [%] against ECHCG” value in the assay on ECHCG (rate 9.375 g/ha) and with ECHCG (rate 18.75 g/ha) was 5% in each case. Also, the “Activity [%] against AMATA” value in the assay with AMATA (rate 9.375 g/ha) stood at 83%.

(Values after US10149474B2, “Herbicidal compositions comprising isoxaflutole and diflufenican” (BAYER CROPSCIENCE AKTIENGESELLSCHAFT, priority 2015, dated 2018).)
